Laboratory results published in PubChem BioAssay AID2060498 (Molecular Pharmacology Branch, DTP, NCI, 2025).
Where “and” joins values, the source holds several entries; their conditions need not be identical. Identical values can stand only once. One block for each compound: values may come before it.

System: 171881-019-R-J1-PDC tumor spheroids, viability
Test: Anticancer human tumor 171881-019-R-J1-PDC patient-derived invasive breast carcinoma cell line growth inhibition [GQUAD]
Settings: spheroids with HUVEC and MSC; for viability, T/C: stronger effect = lower value
Description: DNA G-quadruplex Stabilizer Agents in Combinations in Complex Spheroids
A high-throughput screen of multi-cell type tumor spheroids was designed to identify active combinations of DNA G-quadruplex stabilizer agents and targeted small molecules. Complex spheroids include a stromal component modeled by human endothelial cells (HUVEC) and fibroblasts modeled by human mesenchymal stem cells (MSCs). The concentration ranges selected for each drug and investigational agent were based upon clinically achievable concentrations if the clinical Cmax of the agent was known.
Compounds. The drugs and investigational agents: pidnarulex (CX-5461; NSC782164), APTO-253 (NSC789042), BRACO-19 (NSC847499), peposertib (NSC802822), ceralasertib (NSC780249), elimusertib (NSC800525), camonsertib (NSC841442), AZD-1390 (NSC803789), olaparib (NSC753686), talazoparib (NSC767125), ART-558 (NSC835418), sotorasib (NSC818433), MRTX-1133 (NSC836407), SN-38 (NSC673596), topotecan (NSC609699), etoposide (NSC141540), doxorubicin (NSC123127), gemcitabine (NSC613327), 5-fluorouracil (NSC19893), paclitaxel (NSC125973), vemurafenib (NSC761431), panobinostat (NSC761190), R-306465 (JNJ-16241199; NSC773264), adavosertib (NSC754352), TP-3654 (NSC805149), carboplatin (NSC241240), KSQ-4279 (NSC840948), and staurosporine (NSC755774) were obtained from the National Cancer Institute (NCI) Developmental Therapeutics Program Chemical Repository (34). The FDA-approved anticancer drug set is available from the NCI Developmental Therapeutics Program. […] The stock solutions were prepared in dimethyl sulfoxide (DMSO, Sigma-Aldrich, St. Louis, MO, cat. D2650) at 800-fold the tested concentration and stored at -70 degrees C prior to their use. All drugs and investigational agents were tested over a range starting from a high concentration at or near the clinical Cmax and decreasing in half-log increments. If the clinical Cmax for an agent had not been determined, the highest concentration tested was 10 microM.
2.3 Cell Culture. All cells were maintained in an incubator at 37 degrees C and 5% CO2 with 95% humidity. The PDC lines were cultured according to standard operating procedures established by the NCI PDMR. All PDCs were thawed and cultured in Matrigel-coated flasks prepared with a working solution of 1X Ham's F-12 nutrient mix, without supplementation (Invitrogen, cat. 11765054), 100 U/mL penicillin-streptomycin (Invitrogen, cat. 15140122), and 2.5% Matrigel (Corning Inc., cat. 354248) for the first three passages. The 857933-349-R-J2-PDC line was cultured in 6C/Colon 1B media, which includes advanced DMEM/F-12 (Thermo Fisher Scientific, cat. 12634028), 10 mM HEPES (Thermo Fisher Scientific, cat. 15630080), 1X GlutaMAX supplement (Thermo Fisher Scientific, cat. 35050061), 0.1 mg/mL primocin (InvivoGen, cat. ant-pm-2), 10% defined fetal bovine serum, heat inactivated (HyClone Laboratories Inc., cat. SH30070.03HI), 50% L-WRN conditioned media (ATCC, cat. CRL-3276), 1.25 mM N-Acetyl-L-cysteine (Sigma-Aldrich, cat. A9165), 10 mM nicotinamide (Sigma-Aldrich, cat. N0636), 1X B-27 supplement (Thermo Fisher Scientific, cat. 17504044), 1X N-2 supplement (Thermo Fisher Scientific, cat. 17502048), 10 microM Y-27632 dihydrochloride (Tocris Bioscience, cat. 1254), and 50 ng/mL human EGF recombinant protein (Thermo Fisher Scientific, cat. PHG0311). The 485176-168-R4-J1-PDC line was cultured in Panc media, which includes all 6C/Colon 1B media components plus 100 ng/mL human FGF-10 (Thermo Fisher Scientific, cat. 100-26), 500 nM SB-431542 (Selleckchem, cat. S1067), and gastrin (Tocris, cat. 3006).
[…]
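Also: spheroids exposed to compounds for 7 days.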
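For viability, T/C in this document: 100% = DMSO vehicle control viability.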

IC50 (curve of compound): > 10 µM
SMILES: O=c1[nH]cc(F)c(=O)[nH]1
viability, T/C (compound 0.0316 µM): 82.5% and 74.1% and 82.2%
viability, T/C (compound 0.1 µM): 61.5% and 60.6% and 75.6%
viability, T/C (compound 0.316 µM): 61.1% and 61.8% and 73.7%
viability, T/C (compound 1 µM): 57.7% and 55.4% and 66.4%
viability, T/C (compound 3.16 µM): 51.6% and 51.2% and 63.5%
viability, T/C (compound 10 µM): 52.5% and 54.1% and 66.9%

SMILES: O=C(c1cc(Cc2n[nH]c(=O)c3ccccc23)ccc1F)N1CCN(C(=O)C2CC2)CC1 + Cc1[nH]c2ccc(F)cc2c1-c1nc2c3cccnc3c3ncccc3c2[nH]1
IC50 (curve of first compound, second compound 0.0316 µM): > 10 µM
IC50 (curve of first compound, second compound 0.1 µM): > 10 µM
IC50 (curve of first compound, second compound 0.316 µM): > 10 µM
IC50 (curve of first compound, second compound 1 µM): > 10 µM
IC50 (curve of first compound, second compound 3.16 µM): < 0.0316 µM
IC50 (curve of first compound, second compound 10 µM): > 10 µM
viability, T/C (second compound 0.0316 µM, first compound 0.0316 µM): 95.7%
viability, T/C (second compound 0.0316 µM, first compound 0.1 µM): 105%
viability, T/C (second compound 0.0316 µM, first compound 0.316 µM): 102%
viability, T/C (second compound 0.0316 µM, first compound 1 µM): 106%
viability, T/C (second compound 0.0316 µM, first compound 3.16 µM): 99.3%
viability, T/C (second compound 0.0316 µM, first compound 10 µM): 89.3%
viability, T/C (second compound 0.1 µM, first compound 0.0316 µM): 102%
viability, T/C (second compound 0.1 µM, first compound 0.1 µM): 103%
viability, T/C (second compound 0.1 µM, first compound 0.316 µM): 96.7%
viability, T/C (second compound 0.1 µM, first compound 1 µM): 95.7%
viability, T/C (second compound 0.1 µM, first compound 3.16 µM): 89.1%
viability, T/C (second compound 0.1 µM, first compound 10 µM): 80.3%
viability, T/C (second compound 0.316 µM, first compound 0.0316 µM): 91.7%
viability, T/C (second compound 0.316 µM, first compound 0.1 µM): 107%
viability, T/C (second compound 0.316 µM, first compound 0.316 µM): 107%
viability, T/C (second compound 0.316 µM, first compound 1 µM): 96.2%
viability, T/C (second compound 0.316 µM, first compound 3.16 µM): 91.6%
viability, T/C (second compound 0.316 µM, first compound 10 µM): 81.9%
viability, T/C (second compound 1 µM, first compound 0.0316 µM): 86.5%
viability, T/C (second compound 1 µM, first compound 0.1 µM): 75.6%
viability, T/C (second compound 1 µM, first compound 0.316 µM): 91.3%
viability, T/C (second compound 1 µM, first compound 1 µM): 80.6%
viability, T/C (second compound 1 µM, first compound 3.16 µM): 87.2%
viability, T/C (second compound 1 µM, first compound 10 µM): 78.4%
viability, T/C (second compound 3.16 µM, first compound 0.0316 µM): 27.8%
viability, T/C (second compound 3.16 µM, first compound 0.1 µM): 23.5%
viability, T/C (second compound 3.16 µM, first compound 0.316 µM): 24.4%
viability, T/C (second compound 3.16 µM, first compound 1 µM): 31.8%
viability, T/C (second compound 3.16 µM, first compound 3.16 µM): 28.9%
viability, T/C (second compound 3.16 µM, first compound 10 µM): 25.7%
viability, T/C (second compound 10 µM, first compound 0.0316 µM): 55.1%
viability, T/C (second compound 10 µM, first compound 0.1 µM): 51.2%
viability, T/C (second compound 10 µM, first compound 0.316 µM): 57.2%
viability, T/C (second compound 10 µM, first compound 1 µM): 60.7%
viability, T/C (second compound 10 µM, first compound 3.16 µM): 60.5%
viability, T/C (second compound 10 µM, first compound 10 µM): 49.5%
